Measured values: ChEMBL document CHEMBL4828769, “Discovery of AS-0141, a Potent and Selective Inhibitor of CDC7 Kinase for the Treatment of Solid Cancers” (J Med Chem, 2021)
Active and inactive are the calls of the source. No cut-off for these calls is given here.

Assays:
[1] = Metabolic stability in mouse liver microsomes assessed as parent compound remaining after 30 mins; type: ADME, Microsome; details: liver microsomes, read-out: Stability
[2] = MRT in dog at 1 mg/kg, iv; type: ADME, organism-based, Canis lupus familiaris; details: in vivo
[3] = In vivo inhibition of CDC7 in human SW-620 cells xenografted in BALB/c nude mouse assessed as reduction in phosphorylation of MCM2 at Ser53 residue at 120 mg/kg, po measured after 8 hrs; type: functional; details: SW-620, po
[4] = Protein binding in human plasma assessed as unbound fraction; type: ADME, cell-free
[5] = biological target: T1, Dual specificity protein kinase CLK1 (Homo sapiens, UniProt P49759); assay: Inhibition of CLK1 (unknown origin) at 0.1 uM in presence of 1 mM ATP relative to control
Target sequence in this assay (P49759 whole entry, looked up): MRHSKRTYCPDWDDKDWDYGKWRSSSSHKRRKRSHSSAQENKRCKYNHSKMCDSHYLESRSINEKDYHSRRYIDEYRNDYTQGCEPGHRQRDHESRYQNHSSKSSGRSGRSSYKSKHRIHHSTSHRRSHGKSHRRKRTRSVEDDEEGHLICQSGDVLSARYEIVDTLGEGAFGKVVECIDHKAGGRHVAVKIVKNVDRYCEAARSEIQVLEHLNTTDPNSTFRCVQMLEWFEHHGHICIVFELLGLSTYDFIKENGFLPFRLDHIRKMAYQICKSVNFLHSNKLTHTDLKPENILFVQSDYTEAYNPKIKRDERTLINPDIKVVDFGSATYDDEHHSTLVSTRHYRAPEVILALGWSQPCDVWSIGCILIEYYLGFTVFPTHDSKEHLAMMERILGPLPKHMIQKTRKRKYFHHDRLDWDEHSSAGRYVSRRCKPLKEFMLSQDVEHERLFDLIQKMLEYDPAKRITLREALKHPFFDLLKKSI

[6] = biological target: Glycogen synthase kinase-3 alpha (Homo sapiens, UniProt P49840); assay: Inhibition of GSK3alpha (unknown origin) in presence of 1 mM ATP without preincubation
Glycogen synthase kinase-3 alpha, sequence (P49840 whole entry): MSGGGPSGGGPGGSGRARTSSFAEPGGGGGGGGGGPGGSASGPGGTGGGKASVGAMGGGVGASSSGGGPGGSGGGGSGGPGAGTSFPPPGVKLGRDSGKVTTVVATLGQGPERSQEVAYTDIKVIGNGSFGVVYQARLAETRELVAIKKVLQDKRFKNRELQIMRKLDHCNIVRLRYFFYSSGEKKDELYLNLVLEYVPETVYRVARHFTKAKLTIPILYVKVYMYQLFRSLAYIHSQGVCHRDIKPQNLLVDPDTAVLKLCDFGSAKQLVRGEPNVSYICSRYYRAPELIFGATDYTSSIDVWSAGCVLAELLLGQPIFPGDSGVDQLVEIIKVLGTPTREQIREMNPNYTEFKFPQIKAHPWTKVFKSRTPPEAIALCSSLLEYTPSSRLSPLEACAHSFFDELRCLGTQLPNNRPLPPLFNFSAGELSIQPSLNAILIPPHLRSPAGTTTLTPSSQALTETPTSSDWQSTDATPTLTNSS

[7] = Clearance in mouse at 1 mg/kg, iv; type: ADME, organism-based; details: in vivo
[8] = Tmax in rat at 10 mg/kg, po; type: ADME, organism-based; details: in vivo
[9] = biological target: T2, Cell division cycle 7-related protein kinase (Homo sapiens, UniProt O00311); assay: Inhibition of CDC7 in human SW-620 cells assessed as reduction in phosphorylation of MCM2 at Ser40 residue incubated for 48 hrs by Western blot analysis; type: cell-based
[10] = Volume of distribution in rat at 2 mg/kg, iv; type: ADME, organism-based; details: in vivo
[11] = biological target: T3, Serine/threonine-protein kinase pim-1 (Homo sapiens, UniProt P11309); assay: Inhibition of PIM1 (unknown origin) in presence of 1 mM ATP with preincubation
T3 sequence (P11309 whole entry): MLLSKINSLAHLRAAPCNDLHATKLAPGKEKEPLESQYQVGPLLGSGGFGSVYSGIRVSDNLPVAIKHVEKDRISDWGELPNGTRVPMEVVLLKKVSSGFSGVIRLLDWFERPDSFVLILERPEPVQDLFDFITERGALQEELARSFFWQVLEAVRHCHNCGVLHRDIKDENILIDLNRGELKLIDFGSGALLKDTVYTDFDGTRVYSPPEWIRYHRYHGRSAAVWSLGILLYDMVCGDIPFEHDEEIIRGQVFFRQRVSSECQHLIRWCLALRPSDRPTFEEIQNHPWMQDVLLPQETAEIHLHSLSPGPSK

[12] = Metabolic stability in dog liver microsomes assessed as parent compound remaining after 30 mins; type: ADME, Canis lupus familiaris, Microsome; details: read-out: Stability
SW-620 [13] = assay: Antitumor activity against human SW-620 cells xenografted in BALB/c nude mouse assessed as tumor growth inhibition at 120 mg/kg, po administered daily for 21 days; type: functional; details: SW-620, po, 504 h, time 21 day, read-out: TGI
[14] = Half life in mouse at 10 mg/kg, po; type: ADME, organism-based; details: in vivo
[15] = Cmax in rat at 2 mg/kg, iv; type: ADME, organism-based; set-up: route intravenous, dose 2 mg/kg; details: in vivo
[16] = Volume of distribution in dog at 1 mg/kg, iv; type: ADME, organism-based, Canis lupus familiaris; details: in vivo
SW-620 [17] = assay: Induction of apoptosis in human SW-620 cells assessed as increase in cleaved caspase 3 level incubated for 48 hrs by Western blot analysis; type: functional, cell-based; details: dose 0.03-1 µM
[18] = Metabolic stability in human liver microsomes assessed as parent compound remaining after 30 mins; type: ADME, Microsome; details: liver microsomes, read-out: Stability
[19] = Cmax in mouse at 10 mg/kg, po; type: ADME, organism-based; set-up: route oral, dose 10 mg/kg; details: in vivo
[20] = biological target: T2, Cell division cycle 7-related protein kinase; assay: Inhibition of CDC7 in human COLO 205 cells assessed as reduction in phosphorylation of MCM2 at 1 uM preincubated for 48 hrs followed by compound washout measured after 24 hrs by Western blot analysis; type: cell-based
Target sequence in this assay (O00311 whole entry, looked up): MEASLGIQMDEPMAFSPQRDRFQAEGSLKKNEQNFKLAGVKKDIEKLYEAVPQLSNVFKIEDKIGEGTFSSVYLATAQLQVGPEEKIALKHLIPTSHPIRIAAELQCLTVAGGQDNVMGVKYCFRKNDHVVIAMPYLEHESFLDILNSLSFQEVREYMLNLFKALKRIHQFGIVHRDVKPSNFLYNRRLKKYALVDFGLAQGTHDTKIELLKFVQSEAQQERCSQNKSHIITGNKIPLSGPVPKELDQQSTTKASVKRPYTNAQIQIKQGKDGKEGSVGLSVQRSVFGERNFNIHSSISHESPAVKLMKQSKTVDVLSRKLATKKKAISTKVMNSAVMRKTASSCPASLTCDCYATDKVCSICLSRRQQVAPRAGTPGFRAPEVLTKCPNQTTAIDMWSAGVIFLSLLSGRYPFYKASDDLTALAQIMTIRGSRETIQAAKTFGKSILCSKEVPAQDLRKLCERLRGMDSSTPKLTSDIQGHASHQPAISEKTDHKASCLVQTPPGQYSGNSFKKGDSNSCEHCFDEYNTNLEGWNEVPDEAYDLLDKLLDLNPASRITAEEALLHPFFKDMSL

COLO 205 = assay: Induction of cell cycle arrest in human COLO205 cells assessed as accumulation of cells at sub-G1 phase at 1 uM incubated for 48 hrs by propidium iodide staining based flow cytometry analysis; type: functional
[21] = Metabolic stability in rat liver microsomes assessed as parent compound remaining after 30 mins; type: ADME, Microsome; details: read-out: Stability
[22] = biological target: T4, Dual specificity protein kinase CLK2 (Homo sapiens, UniProt P49760); assay: Inhibition of CLK2 (unknown origin) at 0.1 uM in presence of 1 mM ATP relative to control
Target sequence in this assay (P49760 whole entry, looked up): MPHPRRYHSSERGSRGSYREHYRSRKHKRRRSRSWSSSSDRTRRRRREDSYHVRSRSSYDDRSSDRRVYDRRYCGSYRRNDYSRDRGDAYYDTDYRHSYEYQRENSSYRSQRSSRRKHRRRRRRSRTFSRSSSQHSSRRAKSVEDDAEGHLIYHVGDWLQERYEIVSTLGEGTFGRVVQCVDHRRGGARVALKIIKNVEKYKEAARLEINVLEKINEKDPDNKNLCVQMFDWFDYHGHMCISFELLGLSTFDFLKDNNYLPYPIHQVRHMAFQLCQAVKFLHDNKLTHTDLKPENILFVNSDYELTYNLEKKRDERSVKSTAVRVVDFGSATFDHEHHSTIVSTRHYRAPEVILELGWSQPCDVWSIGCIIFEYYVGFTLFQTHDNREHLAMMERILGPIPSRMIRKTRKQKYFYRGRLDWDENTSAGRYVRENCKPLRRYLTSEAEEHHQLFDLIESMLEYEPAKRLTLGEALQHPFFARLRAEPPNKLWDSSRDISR

Homo sapiens [23] = species on record: Homo sapiens; assay: Selectivity index, ratio of IC50 for GSK3alpha (unknown origin) in presence of 1 mM ATP without preincubation to IC50 for GSK3alpha (unknown origin) in presence of 1 mM ATP with preincubation
[24] = biological target: T2, Cell division cycle 7-related protein kinase; assay: Inhibition of CDC7 in human SW-620 cells assessed as reduction in phosphorylation of MCM2 at Ser41 residue at 0.03 to 1 uM incubated for 48 hrs by Western blot analysis; type: cell-based; details: dose 0.03-1 µM
Target sequence in this assay (O00311 whole entry, looked up): as the sequence (O00311 whole entry, looked up) above

[25] = In vivo inhibition of CDC7 in human SW-620 cells xenografted in BALB/c nude mouse assessed as reduction in phosphorylation of MCM2 at Ser53 residue at 120 mg/kg, po measured after 24 hrs; type: functional; details: SW-620, po
Homo sapiens [26] = species on record: Homo sapiens; assay: Selectivity index, ratio of IC50 for PIM1 (unknown origin) in presence of 1 mM ATP without preincubation to IC50 for PIM1 (unknown origin) in presence of 1 mM ATP with preincubation
[27] = AUC(0 to infinity) in rat at 2 mg/kg, iv; type: ADME, organism-based; set-up: route intravenous, time infinity, dose 2 mg/kg; details: in vivo
SW-620 [28] = assay: Antitumor activity against human SW-620 cells xenografted in BALB/c nude mouse assessed as tumor growth inhibition at 60 mg/kg, po administered as 4 days on and 2 days off schedule for 21 days; type: functional; details: SW-620, po, 504 h, time 21 day, read-out: TGI
[29] = biological target: T1, Dual specificity protein kinase CLK1; assay: Inhibition of CLK1 (unknown origin) in presence of 1 mM ATP without preincubation
Target sequence in this assay (P49759 whole entry): as the sequence (P49759 whole entry, looked up) above

[30] = Volume of distribution in mouse at 1 mg/kg, iv; type: ADME, organism-based; details: in vivo
[31] = AUC(0 to infinity) in mouse at 10 mg/kg, po; type: ADME, organism-based; set-up: time infinity, route oral, dose 10 mg/kg; details: in vivo
[32] = Half life in rat at 10 mg/kg, po; type: ADME, organism-based; details: in vivo
Homo sapiens [33] = species on record: Homo sapiens; assay: Selectivity index, ratio of IC50 for inhibition of human CDC7 in presence of 1 mM ATP without preincubation to IC50 for inhibition of human CDC7 using FITC-labelled MCM2 substrate preincubated for 30 mins followed by substrate addition and measured after 5 hrs in presence of 1 mM ATP
[34] = AUC(0 to infinity) in mouse at 1 mg/kg, iv; type: ADME, organism-based; set-up: route intravenous, time infinity, dose 1 mg/kg; details: in vivo
[35] = Cmax in dog at 2 mg/kg, po; type: ADME, organism-based, Canis lupus familiaris; set-up: route oral, dose 2 mg/kg; details: in vivo
[36] = Inhibition of human CDC7/ASK using FITC-labelled MCM2 substrate in presence of 1 mM of ATP
[37] = Half life in rat at 2 mg/kg, iv; type: ADME, organism-based; details: in vivo
[38] = biological target: T4, Dual specificity protein kinase CLK2; assay: Inhibition of CLK2 (unknown origin) in presence of 1 mM ATP without preincubation
Target sequence in this assay (P49760 whole entry): as the sequence (P49760 whole entry, looked up) above

[39] = biological target: T2, Cell division cycle 7-related protein kinase; assay: Reversible inhibition of human CDC7 assessed as off-rate preincubated for 50 mins followed by substrate addition in presence of ATP by rapid dilution assay
Target sequence in this assay (O00311 whole entry, looked up): as the sequence (O00311 whole entry, looked up) above

[40] = Half life in mouse at 1 mg/kg, iv; type: ADME, organism-based; details: in vivo
[41] = AUC(0 to infinity) in rat at 10 mg/kg, po; type: ADME, organism-based; set-up: time infinity, route oral, dose 10 mg/kg; details: in vivo
[42] = biological target: T3, Serine/threonine-protein kinase pim-1; assay: Inhibition of PIM1 (unknown origin) in presence of 1 mM ATP without preincubation
[43] = Half life in dog at 2 mg/kg, po; type: ADME, organism-based, Canis lupus familiaris; details: in vivo
[44] = Tmax in dog at 2 mg/kg, po; type: ADME, organism-based, Canis lupus familiaris; details: in vivo
Homo sapiens [45] = species on record: Homo sapiens; assay: Selectivity index, ratio of IC50 for CLK1 (unknown origin) in presence of 1 mM ATP without preincubation to IC50 for CLK1 (unknown origin) in presence of 1 mM ATP with preincubation
[46] = Clearance in dog at 1 mg/kg, iv; type: ADME, organism-based, Canis lupus familiaris; details: in vivo
[47] = MRT in mouse at 1 mg/kg, iv; type: ADME, organism-based; details: in vivo
[48] = AUC(0 to infinity) in dog at 2 mg/kg, po; type: ADME, organism-based, Canis lupus familiaris; set-up: route oral, time infinity, dose 2 mg/kg; details: in vivo

remaining at 0.5 h [1]: 18.7%
MRT [2]: 5.26 h
fraction unbound [4]: 0.088
inhibition [5]: > 30%
IC50 [6]: 189 nM
clearance [7]: 112 mL/min/kg
Tmax [8]: 1 h
IC50 [9]: 36 nM
inhibition ([9]; dose 0.03-1 µM): Dose-Dependent Effect
Vd [10]: 3.24 L/kg
IC50 [11]: 34 nM
remaining at 0.5 h [12]: 81%
half-life [14]: 1.45 h
Cmax [15]: 1210 ng/mL
Vd [16]: 4.22 L/kg
remaining at 0.5 h [18]: 89%
Cmax [19]: 285 ng/mL
inhibition [20]: Active
remaining at 0.5 h [21]: 34.9%
inhibition [22]: > 30%
Ratio IC50 (Homo sapiens [23]): 0.8
inhibition [24]: inactive
Ratio IC50 (Homo sapiens [26]): 0.9
AUC(0-inf) [27]: 887 ng·h/mL
IC50 [29]: 212 nM
Vd [30]: 3.1 L/kg
AUC(0-inf) [31]: 454 ng·h/mL
half-life [32]: 6.1 h
Ratio IC50 (Homo sapiens [33]): 210
AUC(0-inf) [34]: 149 ng·h/mL
Cmax [35]: 96.1 ng/mL
IC50 [36]: 503 nM
half-life [37]: 3.01 h
IC50 [38]: 270 nM
T1/2 [39]: 3.58 h
half-life [40]: 0.32 h
AUC(0-inf) [41]: 2410 ng·h/mL
IC50 [42]: 30 nM
half-life [43]: 4.19 h
Tmax [44]: 2.67 h
Ratio IC50 (Homo sapiens [45]): 1
clearance [46]: 13.5 mL/min/kg
MRT [47]: 0.3 h
AUC(0-inf) [48]: 834 ng·h/mL
SMILES: CCOC(=O)C1=C(NN2CCN(CC(F)(F)F)CC2)O/C(=C\c2c[nH]c3ncccc23)C1=O [MONZOSERTIB]
inhibition in vivo at 120 mg/kg [3]: 83%
inhibition in vivo at 120 mg/kg (SW-620 [13]): 88%
Activity (SW-620 [17]): Dose-Dependent Effect
Activity (COLO 205): 51%
inhibition in vivo at 120 mg/kg [25]: 36%
inhibition in vivo at 60 mg/kg (SW-620 [28]): 83%
